Where a name gives a salt, the structure may show the parent alone.
target: T1, Syk tyrosine kinase (Homo sapiens, UniProt P43405); experiment: Test for Syk tyrosine kinase inhibitory activity (ELISA); type: biochemical; conditions: Syk tyrosine kinase (Carna Biosciences), 25 μM ATP in substrate solution, 30° C. 1 hour, n=2; read-out: Evaluation (IC50, concentration inhibiting the tyrosine kinase activity at 50%)
T1 construct: purchased Carna Biosciences, Inc
Protocol: Test Example 1: Test for Syk Tyrosine Kinase Inhibitory Activity
1. Preparation of Test Substance
A test substance was prepared at 10 mM in dimethyl sulfoxide (DMSO), and further diluted with DMSO to concentrations of 1000, 300, 100, 30, 10, 3, 1, 0.3, 0.1, 0.03, and 0.01 μM. The resulting solutions were further diluted to 20-fold with an assay buffer, whereby test substance solutions were prepared. As a negative control, a solution obtained by diluting DMSO to 20-fold with an assay buffer was used. As the assay buffer, a buffer containing 15 mM Tris-HCl (pH 7.5), 0.01 (v/v) % Tween-20, and 1 mM dithiothreitol was used.
2. Measurement of Syk Tyrosine Kinase Inhibitory Activity
The activity was measured using the ELISA method. Each of the test substance solutions was added to a streptavidine-coated 96-well place (DELFIA Strip Plate 8×12 wells, PerkinElmer Co., Ltd,) at 10 μL per well (n=2), and a substrate solution (625 nM biotinylated peptide substrate, 25 μM ATP, 25 mM MgCl2, 15 mM Tris-HCl (pH 7.5), 0.01 (v/v) % Tween-20, 1 mM dithiothreitol) was added to the plate at 20 μL per well, and the resulting mixture was stirred. Finally, Syk tyrosine kinase (Carna Biosciences, Inc.) (previously diluted to 0.025 nM with the assay buffer) was added to the plate at 20 μL per well, and the resulting mixture was stirred. A reaction was allowed to proceed at 30° C. for 1 hour. After the plate was washed 4 times with a washing buffer (50 mM Tris-HCl (pH 7.5, 150 mM NaCl, 0.02 (v/v) % Tween-20), a blocking buffer (0.1% bovine serum albumin, 50 mM Tris-HCl (pH 7.5), 150 mM NaCl, 0.02 (v/v) % Tween-20) was added to the plate at 150 μL per well, and blocking was performed at 30° C. for 30 minutes. Then, the blocking buffer was removed, and a horseradish peroxidase-labeled anti-phosphorylated tyrosine antibody (BD Biosciences, Inc.) (previously diluted to 10000-fold with the blocking buffer) was added to the plate at 100 μL per well, and the plate was incubated at 30° C. for 30 minutes. After the plate was washed 4 times with the washing buffer, a 3,3′,5,5′-tetramethylbenzidine solution (Sigma-Aldrich Co., Ltd.) was added to the plate at 100 μL per well to develop the color for 10 minutes. The reaction was stopped by adding 0.1 M sulfuric acid at 100 μL per well. The absorbance at 450 nm was measured using a microplate reader (Multiskan F C, Thermo Fisher Scientific K,K.).
3. Analysis of Measurement Results
A non-linear regression analysis was performed for the measured absorbance using the SAS system (SAS institute. Inc.), and a concentration of each of the test substances: inhibiting the tyrosine kinase activity at 50% (IC50 ) was calculated. A case where IC50 is […] was evaluated as ***, a case where IC50 is 5 nM or more and less than 50 nM was evaluated as **, and a case where IC50 is 50 nM or more and less than 500 nM was evaluated as *, which are shown in the column of evaluation item.

`N#Cc1ccnc(Nc2cc(C3CC3)cc(-c3ccc(N4CC[C@@H](O)C4)nc3)n2)c1` [Example 22, 2-({4-cyclopropyl-6′-[(3R)-3-hydroxypyrrolidin-1-yl]-2,3′-bipyridin-6-yl}amino)pyridine-4-carbonitrile hydrochloride] and `N#Cc1ccnc(Nc2cc(C3CC3)cc(-c3ccc(N4CC[C@H](O)C4)nc3)n2)c1` [Example 25, 2-({4-cyclopropyl-6′-[(3S)-3-hydroxypyrrolidin-1-yl]-2,3′-bipyridin-6-yl}amino)pyridine-4-carbonitrile hydrochloride] fall in the same range of IC50: 5 to 50 nM for the first, 5 to 50 nM for the second.

`N#Cc1ccnc(Nc2cc(C3CC3)cc(-c3ccc(NCCCO)nc3)n2)c1` [Example 23, 2-({4-cyclopropyl-6′-[(3-hydroxypropyl)amino]-2,3′-bypyridin-6-yl}amino)pyridine-4-carbonitrile hydrochloride] and `CC(C)(CO)CNc1ccc(-c2cc(C3CC3)cc(Nc3cc(C#N)ccn3)n2)cn1` [Example 24, 2-({4-cyclopropyl-6′-[(3-hydroxy-2,2-dimethylpropyl)amino]-2,3′-bipyridin-6-yl}amino)pyridine-4-carbonitrile hydrochloride] fall in the same range of IC50: 5 to 50 nM for the first, 5 to 50 nM for the second.

`N#Cc1ccnc(Nc2cc(C3CC3)cc(-c3ccc(N4CCC(CO)CC4)nc3)n2)c1` [Example 26, 2-({4-cyclopropyl-6′-[4-(hydroxymethyl)piperidin-1yl]-2,3′-bipyridin-6-yl}amino)pyridine-4-carbonitrile hydrochloride] and `N#Cc1ccnc(Nc2cc(C3CC3)cc(-c3ccc(N4CCC(N)CC4)nc3)n2)c1` [Example 28, 2-{[6′-(4-aminopiperidin-1-yl)-4-cyclopropyl-2,3′-bipyridin-6-yl]amino}pyridine-4-carbonitrile dihydrochloride] fall in the same range of IC50: 5 to 50 nM for the first, 5 to 50 nM for the second.

Compared with `N#Cc1ccnc(Nc2cc(C3CC3)cc(-c3ccc(N4CCSCC4)nc3)n2)c1` [Example 27, 2-{[4-cyclopropyl-6′-(thiomorphoiln-4-yl)-2,3′-bipyridin-6-yl]amino}pyridine-4-carbonitrile hydrochloride], `N#Cc1ccnc(Nc2cc(C3CC3)cc(-c3ccc(N4CCC(F)CC4)nc3)n2)c1` [Example 30, 2-{[4-cyclopropyl-6′-(4-fluoropiperidin-1-yl)-2,3′-bipyridin-6-yl]amino}pyridine-4-carbonitrile hydrochloride] is higher in IC50: 5 to 50 nM for the first, 50 to 500 nM for the second.

First: CNC1CCN(c2ccc(-c3cc(C4CC4)cc(Nc4cc(C#N)ccn4)n3)cn2)CC1 [Example 29, 2-({4-cyclopropyl-6′-[4-(methylamino)piperidin-1-yl]-2,3′-bipyridin-6-yl}amino)pyridine-4-carbonitrile dihydrochloride]
Second: CC(=O)N[C@H]1CCN(c2ccc(-c3cc(C4CC4)cc(Nc4cc(C#N)ccn4)n3)cn2)C1 [Example 42, N-[(3S)-1-{6-[(4-cyanopyridin-2-yl)amino]-4-cyclopropyl-2,3′-bipyridin-6′-yl}pyrrolidin-3-yl]acetamide hydrochloride]
The IC50 of the first is lower: 5 to 50 nM for the first, 50 to 500 nM for the second. The first is the more potent here.

`N#Cc1ccnc(Nc2cc(C3CC3)cc(-c3ccc(N(CCO)CCO)nc3)n2)c1` [Example 31, 2-({6′-[bis(2-hydroxyethyl)amino]-4-cyclopropyl-2,3′-bipyridin-6-yl}amino)pyridine-4-carbonitrile hydrochloride] and `Cn1ncc2ccc(-c3cc(C4CC4)cc(Nc4cc(C#N)ccn4)n3)cc21` [Example 37, 2{[4-cyclopropyl-6-(1-methyl-1H-indazol-6-yl)pyridin-2-yl]amino}pyridine-4-carbonitrile hydrochloride] fall in the same range of IC50: 5 to 50 nM for the first, 5 to 50 nM for the second.

`N#Cc1ccnc(Nc2cc(C3CC3)cc(-c3ccc(N4CCCNCC4)nc3)n2)c1` [Example 32, 2-{[4-cyclopropyl-6′-(1,4-diazepan-1-yl)-2,3′-bipyridin-6-yl]amino}pyridine-4-carbonitrile dihydrochloride] and `CN1CCCN(c2ccc(-c3cc(C4CC4)cc(Nc4cc(C#N)ccn4)n3)cn2)CC1` [Example 38, 2-{[4-cyclopropyl-6′-(4-methyl-1,4-diazepan-1-yl)-2,3′-bipyridin-6-yl]amino}pyridine-4-carbonitrile dihydrochloride] fall in the same range of IC50: 5 to 50 nM for the first, 5 to 50 nM for the second.

`N#Cc1ccnc(Nc2cc(C3CC3)cc(-c3ccc(N4CCC[C@H](O)C4)nc3)n2)c1` [Example 33, 2-({4-cyclopropyl-6′-[(3S)-3-hydroxypiperidin-1-yl]-2,3′-bipyridin-6-yl}amino)pyridine-4-carbonitrile hydrochloride] and `N#Cc1ccnc(Nc2cc(C3CC3)cc(-c3ccc(N4CCC[C@@H](O)C4)nc3)n2)c1` [Example 34, 2-({4-cyclopropyl-6′-[(3R)-3-hydroxypiperidin-1-yl]-2,3′-bipyridin-6-yl}amino)pyridine-4-carbonitrile hydrochloride] fall in the same range of IC50: 5 to 50 nM for the first, 5 to 50 nM for the second.

`N#Cc1ccnc(Nc2cc(C3CC3)cc(-c3cnc(N4CCC(O)CC4)nc3)n2)c1` [Example 35, 2-({4-cyclopropyl-6-[2-(4-hydroxypiperidin-1-yl)pyrimidin-5-yl]pyridin-2-yl}amino)pyridine-4-carbonitrile hydrochloride] and `N#Cc1ccnc(Nc2cc(C3CC3)cc(-c3ccc(N4CCC(O)CC4)cc3)n2)c1` [Example 41, 2-({4-cyclopropyl-6-[4-(4-hydroxypiperidin-1-yl)phenyl]pyridin-2-yl}amino)pyridine-4-carbonitrile hydrochloride] fall in the same range of IC50: 50 to 500 nM for the first, 50 to 500 nM for the second.

First: Cn1ncc2cc(-c3cc(C4CC4)cc(Nc4cc(C#N)ccn4)n3)ccc21 [Example 36, 2-{[4-cyclopropyl-6-(1-methyl-1H-indazol-5-yl)pyridin-2-yl]amino}pyridine-4-carbonitrile hydrochloride]
Second: CNC(=O)C1CCCN1c1ccc(-c2cc(C3CC3)cc(Nc3cc(C#N)ccn3)n2)cn1 (centres unmarked) [Example 39, 1-{6-[(4-cyanopyridin-2-yl)amino]-4-cyclopropyl-2,3′-bipyridin-6′-yl}-N-methylpyrrolidine-2-carboxamide hydrochloride]
The IC50 of the first is lower: 5 to 50 nM for the first, 50 to 500 nM for the second. The first is the more potent here.

`N#Cc1ccnc(Nc2cc(C3CC3)cc(-c3ccc(N4CCC[C@H]4C(N)=O)nc3)n2)c1` [Example 40, (S)-1-{6-[(4-cyanopyridin-2-yl)amino]-4-cyclopropyl-2,3′-bipyridin-6′-yl}pyrrolidine-2-carboxamide hydrochloride] and `N#Cc1ccnc(Nc2cc(C3CC3)cc(-c3ccc(N4CCC[C@@H]4C(N)=O)nc3)n2)c1` [Example 47, (R)-1-{6-[(4-cyanopyridin-2-yl)amino]-4-cyclopropyl-2,3′-bipyridin-6′-yl}pyrrolidine-2-carboxamide hydrochloride] fall in the same range of IC50: 50 to 500 nM for the first, 50 to 500 nM for the second.

`CCNC(=O)N1CCN(c2ccc(-c3cc(C4CC4)cc(Nc4cc(C#N)ccn4)n3)cn2)CC1` [Example 43, 4-{6-[(4-cyanopyridin-2-yl)amino]-4-cyclopropyl-2,3′-bipyridin-6′-yl}-N-ethylpiperazine-1-carboxamide hydrochloride] and `CC(C)NC(=O)N1CCN(c2ccc(-c3cc(C4CC4)cc(Nc4cc(C#N)ccn4)n3)cn2)CC1` [Example 44, 4-{6-[(4-cyanopyridin-2-yl)amino]-4-cyclopropyl-2,3′-bipyridin-6′-yl}-N-(propan-2-yl)piperazine-1-carboxamide hydrochloride] fall in the same range of IC50: 50 to 500 nM for the first, 50 to 500 nM for the second.

`N#Cc1ccnc(Nc2cc(C3CC3)cc(-c3ccc(N4CC[C@@H](NC(N)=O)C4)nc3)n2)c1` [Example 45, 1-[(3R)-1-{6-[(4-cyanopyridin-2-yl)amino]-4-cyclopropyl-2,3′-bipyridin-6′-yl}pyrrolidin-3-yl]urea hydrochloride] and `N#Cc1ccnc(Nc2cc(C3CC3)cc(-c3ccc(N4CCN(C(N)=S)CC4)nc3)n2)c1` [Example 46, 4-{6-[(4-cyanopyridin-2-yl)amino]-4-cyclopropyl-2,3′-bipyridin-6′-yl}piperazine-1-carbothioamide hydrochloride] fall in the same range of IC50: 50 to 500 nM for the first, 50 to 500 nM for the second.
